The values that follow come from patent US20240000803A1, “ORAL FORMULATION OF BIOLOGICALLY ACTIVE MATERIAL CONJUGATE HAVING BIOTIN MOIETY, FATTY ACID MOIETY, OR COMBINATION THEREOF COUPLED THERETO” (D&D Pharmatech Inc., priority 2020, published 2024).

Test [1] can be described thus: Weight reduction and feed intake reduction over 24 hours after oral administration. The class given is in vivo. Particulars: mice, formulation with sodium chenodeoxycholate and propyl gallate (Table 13). As to the method:
Physiologically active substances bound to a biotin moiety, fatty acid moiety or a combination thereof, prepared in accordance with the above example, were formulated by dissolving in a vehicle (0.02% polysorbate 80 in 10 mM PBS (pH 7.4)) with the compositions of excipients shown in Table 13, then administered orally to mice. Weight reduction and feed intake reduction were measured over 24 hours.

Another test has as its system glycated hemoglobin. As to the kind of experiment: Glycated hemoglobin change after oral administration once daily over 3 weeks (Conjugate 56). The note with it: mice; for ΔGlycated Hemoglobin: oral once daily over 3 weeks, sCDC 68 mg/kg, PG 34 mg/kg. The class given is in vivo. As to the method: Physiologically active substances bound to a biotin moiety prepared in accordance with the above example were formulated by dissolving in a vehicle with the compositions of excipients shown in Table 23. These were orally administered to mice once daily over 3 weeks, and changes in glycated hemoglobin were measured.

Where no end group is shown, it is not given here. [ ]: non-standard residue; d: D form. The star is where a group is joined. Biotin = O=C1N[C@H]2[C@H](CS[C@H]2CCCCC(=O)*)N1; F11 = C18-Glu-EG2-EG2-NHS; Aib = CC(C)(N)C(=O)O

Turning to “Conjugate 33: Polypeptide SEQ ID NO 24 (amylin derivative) with biotin moiety B38 at K1 (K(Biotin)CNTATCATQRLANFLVHSSNNFGPILPPTNVGSNTY; ends and bridges not checked)”, the “Weight loss compared to untreated group (%)” value (“Weight loss … (%)” for short) in test [1] is −4.07 ± 1.30%.

In the case of “Conjugate 36: Polypeptide SEQ ID NO 26 (amylin derivative) with biotin moiety B38 at K1 (K(Biotin)CNTATCATQRLADFLRHSSPNFGAIPSSTNVGSRTY; ends and bridges not checked)”, the “Weight loss … (%)” value in test [1] is reported as −4.53 ± 0.86%.

As to “Conjugate 39: Polypeptide SEQ ID NO 28 (amylin derivative) with biotin moiety B38 at K1 (K(Biotin)CNTATCATQRLADFLRHSSNNFGAIPSSTNVGSRTY; ends and bridges not checked)”, the “Weight loss … (%)” value in test [1] was −1.99 ± 0.94%.

Take “Conjugate 56: Polypeptide SEQ ID NO 40 (glucagon derivative) with biotin moiety B38 at K12 and fatty acid moiety F11 at K30 (H[Aib]QGTFTSDYSK(Biotin)YLDEQAAKEFVQWLMNTK(F11))”: the “glycated hemoglobin reduction effect” value in the test on glycated hemoglobin (oral once daily 3 weeks, formulation with one bile acid and propyl gallate) is reported as “exhibited a glycated hemoglobin reduction effect”. Further, the results for the “ΔGlycated Hemoglobin” value in the test with glycated hemoglobin (1.343 mg/kg) and in the test with glycated hemoglobin (4.475 mg/kg) were −0.47 ± 0.34% and −0.98 ± 0.67%, respectively.

In the case of “Conjugate 61: Polypeptide SEQ ID NO 24 with biotin moiety B38 at K1 and fatty acid moiety F11 at K1 (KCNTATCATQRLANFLVHSSNNFGPILPPTNVGSNTY; not fully specified (residue 1); ends and bridges not checked; also: biotin B38 and fatty acid F11 both at K1, attachment sites not given here)”, the “Weight loss … (%)” value in test [1] is reported as −2.96 ± 4.22%.

For the substance “Conjugate 62: Polypeptide SEQ ID NO 26 with biotin moiety B38 at K1 and fatty acid moiety F11 at K1 (KCNTATCATQRLADFLRHSSPNFGAIPSSTNVGSRTY; not fully specified (residue 1); ends and bridges not checked; also: biotin B38 and fatty acid F11 both at K1, attachment sites not given here)”, in test [1], the “Weight loss … (%)” value was −3.32 ± 1.31%.

For “Conjugate 63: Polypeptide SEQ ID NO 28 with biotin moiety B38 at K1 and fatty acid moiety F11 at K1 (KCNTATCATQRLADFLRHSSNNFGAIPSSTNVGSRTY; not fully specified (residue 1); ends and bridges not checked; also: biotin B38 and fatty acid F11 both at K1, attachment sites not given here)”, the “Weight loss … (%)” value in test [1] was −2.41 ± 0.78%.

In the case of “Conjugate 64: Polypeptide SEQ ID NO 30 with biotin moiety B38 at K35 and fatty acid moiety F11 at K1 (RCNTATCATQRLADFLRHSSNNFGAIPSSTNVGSK(Biotin)TY; ends and bridges not checked; also: fatty acid F11 at K1, but residue 1 is R)”, the “Weight loss … (%)” value in test [1] is recorded as −3.38 ± 1.26%.

In the case of “Polypeptide SEQ ID NO: 24: amylin derivative KCNTATCATQRLANFLVHSSNNFGPILPPTNVGSNTY (Amylin derivative) [reference compound]”, the “Weight loss … (%)” value in test [1] is listed as −2.63 ± 1.06%.

Take “Polypeptide SEQ ID NO: 26: amylin derivative KCNTATCATQRLADFLRHSSPNFGAIPSSTNVGSRTY (Amylin derivative) [reference compound]”: the “Weight loss … (%)” value in test [1] was −3.13 ± 1.05%.

On to “Polypeptide SEQ ID NO: 28: amylin derivative KCNTATCATQRLADFLRHSSNNFGAIPSSTNVGSRTY (Amylin derivative) [reference compound]”, for which the “Weight loss … (%)” value in test [1] was −1.11 ± 0.84%.

For “Polypeptide SEQ ID NO: 30: amylin derivative RCNTATCATQRLADFLRHSSNNFGAIPSSTNVGSKTY (Amylin derivative) [reference compound]”, the “Weight loss … (%)” value in test [1] is reported as −1.17 ± 0.76%.
